Conditions: for vapor or sublimation pressure: Liquid; for mass density: Fluid (supercritical or subcritical phases), Vibrating tube method

C/C=C/C [(E)-2-butene]
Conditions	vapor or sublimation pressure [kPa]
391.25 K	2128.9
396.15 K	2323.1
401.02 K	2529.8
405.96 K	2755.8
411.21 K	3016
416.99 K	3326
423.45 K	3697

Conditions	mass density [kg/m3]
393.24 K, 2756 kPa	454.89
393.24 K, 10003 kPa	497.51
393.24 K, 19992 kPa	528.52
393.24 K, 24995 kPa	539.91
393.24 K, 29988 kPa	549.71
393.24 K, 34990 kPa	558.37
393.24 K, 39993 kPa	566.17
393.25 K, 4997 kPa	472.39
393.25 K, 14998 kPa	514.88
398.24 K, 2959 kPa	443.84
398.24 K, 4981 kPa	462.17
398.24 K, 19993 kPa	522.99
398.24 K, 24990 kPa	534.84
398.24 K, 29994 kPa	545.03
398.24 K, 34989 kPa	553.97
398.24 K, 39985 kPa	561.98
398.25 K, 9988 kPa	490.01
398.25 K, 14985 kPa	508.6
403.24 K, 3180 kPa	432.03
403.24 K, 4993 kPa	451.14
403.24 K, 20001 kPa	517.41
403.24 K, 24988 kPa	529.74
403.24 K, 29983 kPa	540.28
403.24 K, 40005 kPa	557.82
403.25 K, 9990 kPa	482.36
403.25 K, 14985 kPa	502.24
403.25 K, 34985 kPa	549.53
408.25 K, 3414 kPa	419.31
408.25 K, 4983 kPa	439.35
408.25 K, 9983 kPa	474.42
408.25 K, 14983 kPa	495.75
408.25 K, 19999 kPa	511.74
408.25 K, 24993 kPa	524.63
408.25 K, 29986 kPa	535.55
408.25 K, 35006 kPa	545.13
408.25 K, 39984 kPa	553.58
413.25 K, 3663 kPa	405.52
413.25 K, 4996 kPa	426.54
413.25 K, 9995 kPa	466.32
413.25 K, 14985 kPa	489.18
413.25 K, 19983 kPa	505.96
413.25 K, 24984 kPa	519.43
413.25 K, 30003 kPa	530.83
413.25 K, 34985 kPa	540.64
413.25 K, 39999 kPa	549.4
418.25 K, 3926 kPa	390.44
418.25 K, 5005 kPa	412.09
418.25 K, 10002 kPa	457.93
418.25 K, 14984 kPa	482.48
418.25 K, 19988 kPa	500.19
418.25 K, 25008 kPa	514.29
418.25 K, 30007 kPa	526.05
418.25 K, 34987 kPa	536.18
418.25 K, 40000 kPa	545.19
423.25 K, 4203 kPa	373.85
423.25 K, 4985 kPa	394.86
423.25 K, 9986 kPa	449.09
423.25 K, 14991 kPa	475.65
423.25 K, 20002 kPa	494.39
423.25 K, 24993 kPa	509.02
423.25 K, 30004 kPa	521.25
423.25 K, 34988 kPa	531.71
423.25 K, 39993 kPa	540.98
428.25 K, 4495 kPa	355.87
428.25 K, 4987 kPa	374.39
428.25 K, 9990 kPa	440.12
428.25 K, 14983 kPa	468.7
428.25 K, 20010 kPa	488.52
428.25 K, 24997 kPa	503.78
428.25 K, 30004 kPa	516.44
428.25 K, 34994 kPa	527.25
428.25 K, 39986 kPa	536.76
433.25 K, 5019 kPa	349.08
433.25 K, 9991 kPa	430.38
433.25 K, 14995 kPa	461.71
433.25 K, 19998 kPa	482.53
433.25 K, 25004 kPa	498.52
433.25 K, 30001 kPa	511.61
433.25 K, 34993 kPa	522.78
433.25 K, 39997 kPa	532.57
438.25 K, 5017 kPa	309.55
438.25 K, 9985 kPa	420.62
438.25 K, 14989 kPa	454.5
438.25 K, 19998 kPa	476.52
438.25 K, 25008 kPa	493.22
438.25 K, 30004 kPa	506.79
438.25 K, 34989 kPa	518.29
438.25 K, 39985 kPa	528.34
443.25 K, 5019 kPa	241.91
443.25 K, 9986 kPa	410.38
443.25 K, 14991 kPa	447.2
443.25 K, 20002 kPa	470.46
443.25 K, 25001 kPa	487.86
443.25 K, 30002 kPa	501.91
443.25 K, 34997 kPa	513.82
443.25 K, 39989 kPa	524.15
448.25 K, 5019 kPa	186.22
448.25 K, 9990 kPa	399.76
448.25 K, 14990 kPa	439.76
448.25 K, 19992 kPa	464.3
448.25 K, 24997 kPa	482.49
448.25 K, 29990 kPa	497.07
448.25 K, 34988 kPa	509.34
448.25 K, 39987 kPa	519.97
453.25 K, 5019 kPa	159.59
453.25 K, 9992 kPa	388.61
453.25 K, 14987 kPa	432.19
453.25 K, 20001 kPa	458.19
453.25 K, 24998 kPa	477.11
453.25 K, 29995 kPa	492.22

From the NIST ThermoML archive (doi:10.1016/j.fluid.2004.09.013)
